{"source": "patent US20130337095A1", "about": "“ANTIMICROBIAL COMPOSITION AND ITS METHOD OF USE” (Waikatolink Limited, priority 2012, published 2013)", "type_in_all_cases": "cell-based", "key": {"[1]": {"system": "Streptococcus agalactiae (NZRM 2721, ATCC 27956)", "test": "MIC assay against S. agalactiae", "method": "(§1) To exemplify the concept of the present invention, the in vitro activity of three novel plant extracts melaleuca oil, manuka oil, and black walnut hull extract in a specific ratio described herein, were tested against an isolate of various microbes (methicillin-sensitive S. aureus, methicillin-resistant S. aureus, S. pyogenes, S. agalactiae, S. uberis, E. coli, C. albicans) from a reference library.\n(§2) MIC90 refers to the minimum inhibitory concentration required to inhibit the growth of 90% of the organisms. The methods and materials used for this preliminary study are outlined in Example 5.\n(§3) The test formulation, comprising three novel plant extracts melaleuca oil, manuka oil, and black walnut hull extract in a specific ratio described herein, was serially diluted to give 11 different concentrations. The diluted samples were then incubated with individual microbes, and the MICs were determined as the lowest concentration of test substance that inhibited the growth of the microbe as determined by measurement of OD650 nm using a VersaMax 96 well plate reader. […]"}, "[2]": {"system": "Staphylococcus aureus (NZCC 4410, ATCC 33591, Strain 328 methicillin resistant)", "test": "MIC assay against methicillin-resistant S. aureus", "method": "as §1, §2, §3"}, "[3]": {"system": "Pseudomonas aeruginosa (ESR strain 981, NTC 10662, ATCC 25668)", "test": "MIC assay, in-vitro anti P. aeruginosa activity", "conditions": "antibiotics; for MIC90: Pseudomonas aeruginosa, ATCC25668", "method": "To exemplify the concept of the present invention, the in vitro activity of three novel plant extracts melaleuca oil, manuka oil, and black walnut hull extract, and blends of these extracts, were tested against an isolate of Pseudomonas aeruginosa from a reference library. MIC90 refers to the minimum inhibitory concentration required to inhibit the growth of 90% of the organisms. The methods and materials used for this preliminary study are outlined in Example 3.\n• The methodology used in this study is based on standard MIC assay methods referenced in numerous publications. • Each of the extracts was serially diluted to give 11 different concentrations. The diluted samples were then incubated with the Pseudomonas aeruginosa (ESR strain 981, NTC 10662, ATCC 25668, DSM 46358, NC/MB 13063). The MICs were determined as the lowest concentration of each extract that inhibits growth of the bacteria as determined by measurement of OD650 nm using a VersaMax 96 well plate reader.\n• Tryptic soy agar base (Bacto Difco Media Cat. No. 236940, Becton Dickinson and company). • Mueller II broth cation-adjusted (BBL media Cat. No. 212332, Becton Dickinson and company).\n• a) The isolate of Pseudomonas aeruginosa was streaked from −70° C. cryostocks onto Tryptic Soy Agar (TSA) plates and incubated for 24-48 hrs at 37° C. until visible single colonies developed. • b) One colony was picked, using a sterile inoculating loop and used to inoculate sterile 10 ml universals of Mueller II Cation-adjusted broth. Inoculated broths were incubated for approx 18 hrs at 37° C. • c) Following overnight incubation the culture was diluted with fresh sterile Mueller II cation adjusted broth to an OD650 nm of approximately 0.1, equivalent to approx […] (cell number and OD650 nm was determined and optimised prior to commencement of MIC testing). This is the seed broth which was used to inoculate the test wells in each plate. The seed culture was held at 4° C. until required for plating. • d) Stock solutions of each test extract were prepared so that their concentration is 64 μg/ml in the appropriate formulation in Mueller II cation adjusted broth. Once the extract was added to the broth it was mixed using a vortex mixer for approx 30 sec to ensure homogenous dispersion throughout the broth solution. • e) A 96 well microtitre plate was then set up as follows: To all wells, except the first in every row, 100 μl of sterile Mueller II cation adjusted broth was added. The plate was prepared up to 24 hrs in advance and held at −20° C. until ready for use. • f) If the plate was prepared in advance, it needed to be thawed at room temperature. […]"}, "[4]": {"system": "Escherichia coli (NZRN 2220, ATCC 291214)", "test": "MIC assay against E. coli", "method": "as §1, §2, §3"}, "[5]": {"system": "Streptococcus uberis (NZRM 2266 NCTC 3858)", "test": "MIC assay against S. uberis", "method": "as §1, §2, §3"}, "Streptococcus pyogenes": {"system": "Streptococcus pyogenes", "test": "MIC assay against S. pyogenes", "method": "as §1, §2, §3"}, "[6]": {"system": "Staphylococcus aureus (NZCC865, ATCC12598)", "test": "MIC assay against S. aureus (methicillin-sensitive)", "method": "as §1, §2, §3"}}, "note": "Where a name gives a salt, the structure may show the parent alone. Read-outs that look alike come from different tables or passages of the source.", "data": [{"compound": "CC1=C(C(=O)O)N2C(=O)[C@@H](NC(=O)[C@H](N)c3ccccc3)[C@H]2SC1", "note": "[Cephalexin, Cephalexin hydrate]", "values": [{"measurement": "MIC antibiotic reference 16 h", "setting": "[1]; 16 h", "result": 0.098, "unit": "µg/mL"}, {"measurement": "MIC antibiotic reference 24 h", "setting": "[1]; 24 h", "result": 0.098, "unit": "µg/mL"}]}, {"compound": "C[C@H]1c2cccc(O)c2C(=O)C2=C(O)[C@]3(O)C(=O)C(C(N)=O)=C(O)[C@@H](N(C)C)[C@@H]3[C@@H](O)[C@@H]21", "note": "[Doxycycline]", "values": [{"measurement": "MIC antibiotic reference 16 h", "setting": "[2]; 16 h", "result": 0.05, "unit": "µg/mL"}]}, {"compound": "CCN1CCN(c2cc3c(cc2F)c(=O)c(C(=O)O)cn3C2CC2)CC1", "note": "[Enfrofloxacin]", "values": [{"measurement": "MIC antibiotic reference 24 h", "setting": "[2]; 24 h", "result": 0.05, "unit": "µg/mL"}]}, {"compound": "O=C(O)c1cn(C2CC2)c2cc(N3CCNCC3)c(F)cc2c1=O", "note": "[G. ciprofloxacin, ciprofloxacin]", "values": [{"measurement": "MIC90", "setting": "[3]; 18 h, read-out: MIC90 18 h", "result": 0.049, "unit": "µg/mL"}, {"measurement": "MIC90", "setting": "[3]; 24 h, read-out: MIC90 24 h", "result": 0.098, "unit": "µg/mL"}, {"measurement": "MIC antibiotic reference 16 h", "setting": "[4]; 16 h", "result": 0.049, "unit": "µg/mL"}, {"measurement": "MIC antibiotic reference 24 h", "setting": "[4]; 24 h", "result": 0.049, "unit": "µg/mL"}]}, {"compound": "CC1(C)S[C@@H]2[C@H](NC(=O)Cc3ccccc3)C(=O)N2[C@H]1C(=O)O", "note": "[Penicillin, Penicillin G sodium salt]", "values": [{"measurement": "MIC antibiotic reference 16 h", "setting": "[5]; 16 h", "result": 0.049, "unit": "µg/mL"}, {"measurement": "MIC antibiotic reference 24 h", "setting": "[5]; 24 h", "result": 0.049, "unit": "µg/mL"}, {"measurement": "MIC antibiotic reference 16 h", "setting": "Streptococcus pyogenes; 16 h", "result": 0.049, "unit": "µg/mL"}, {"measurement": "MIC antibiotic reference 24 h", "setting": "Streptococcus pyogenes; 24 h", "result": 0.049, "unit": "µg/mL"}]}, {"compound": "[H]/N=C(/N)N[C@H]1[C@H](O)[C@@H](O)[C@H](O[C@@H]2O[C@@H](C)[C@](O)(C=O)[C@H]2O[C@@H]2O[C@@H](CO)[C@H](O)[C@@H](O)[C@@H]2NC)[C@@H](N/C(N)=N\\[H])[C@@H]1O", "note": "[Streptomycin]", "values": [{"measurement": "MIC antibiotic reference 16 h", "setting": "[6]", "result": 0.003, "unit": "µg/mL"}]}, {"compound": "gentamicin [F. gentamicin]", "values": [{"measurement": "MIC90 18 h", "setting": "[3]; 18 h", "result": 0.098, "unit": "µg/mL"}, {"measurement": "MIC90 24 h", "setting": "[3]; 24 h", "result": 3.125, "unit": "µg/mL"}]}]}
